Here are results for two compounds from article PMC9431032, “Boosting Cosmeceutical Peptides: Coupling Imidazolium-Based Ionic Liquids to Pentapeptide-4 Originates New Leads with Antimicrobial and Collagenesis-Inducing Activities” (Microbiology Spectrum, 2022).

A word on the IC50: it is the midpoint of a concentration-inhibition curve. Low values mean higher potency, high ones lower potency.

Several values for one entry are separate records, joined by “and”; a condition that tells them apart may be missing. Equal entries are not always repeated. Where two headings read alike, the source gives them in different places. Peptide text beside a SMILES is read from it. * marks the point of attachment. X1 = CCCCCCCCCCCCCCCCn1cc[n+](Cc2cn(CC(=O)*)nn2)c1

One assay relates to C. albicans ATCC 90028. The assay is described as follows: microbe, parasite or virus in culture. The conditions noted are these: C. albicans ATCC 90028, RPMI 1640 with 2% glucose, EUCAST, n = 2. The protocol:
(§1) The MIC values were determined according to the European Committee on Antimicrobial Susceptibility Testing (EUCAST) protocol ([36]) and are shown on Table 4.
(§2) (iii) Antifungal activity.

The subject of assay [1] is C. parapsilosis ATCC 22019. Nature of the assay: microbe, parasite or virus in culture. The conditions noted are these: C. parapsilosis ATCC 22019, RPMI 1640 with 2% glucose, EUCAST, n = 2. The protocol: as §1, §2
In a further assay the test system is C. glabrata ATCC 90030. The assay is described as follows: microbe, parasite or virus in culture. The settings on record: C. glabrata ATCC 90030, RPMI 1640 with 2% glucose, EUCAST, n = 2. The protocol:
as §1, §2

The subject of assay [2] is human dermal fibroblasts (HDF). The assay is described as follows: Collagen production, Sircol kit assay. Type of assay: cell-based. The conditions noted are these: 5 μM, 48 h, three independent experiments in triplicates, values only in Fig. 3. The protocol: The point of conjugating antimicrobial ILs to a collagenesis-inducing peptide was to afford a simple construct able to exert a dual antimicrobial and skin rebuilding action. Therefore, the two best IL-KTTKS conjugates were further tested for their ability to promote collagen production by human dermal fibroblasts (HDF) in vitro. This was assessed using the Sircol kit assay, whereby the amount of newly formed collagen in the ECM that is deposited in the microwell-plated cell cultures is solubilized in an acidic medium and next quantified through a collagen standard curve according to the Sircol kit assay procedure ([38]). […]
(v) Collagen production in human dermal fibroblasts. The amount of collagen produced by HDF was determined using the SIRCOL Kit Assay (Biocolor) according to the manufacturers’ instructions ([38]). […] Medium was then removed, and quantitation of the newly formed collagen proceeded as follows: collagen was solubilized in cold 0.5 M aqueous acetic acid (Fisher Chemical) and concentrated overnight with deposition of a transparent pellet; after centrifugation, the supernatant was discarded and the pellet was labeled with the SIRCOL dye reagent; after removing the unbound dye with the acid-salt wash reagent, the collagen-bound dye was dissolved with the alkali reagent and absorbance was measured at 555 nm on Flex Station 3 multimode microplate reader. […]

For the next assay, the system named is E. faecalis ATCC 29212. Nature of the assay: microbe, parasite or virus in culture. The settings on record: E. faecalis ATCC 29212; broth microdilution in cation-adjusted MHB2, CLSI; n = 3. The protocol:
(§3) The antimicrobial activity of the IL-KTTKS conjugates was assessed in vitro against reference bacterial strains (American Type Culture Collection, ATCC). The minimal inhibitory concentration (MIC) was determined according to the Clinical and Laboratory Standards Institute (CLSI) guidelines ([28]) against Gram-positive (S. aureus, Enterococcus faecalis) and Gram-negative (Escherichia coli, Pseudomonas aeruginosa) bacteria.
(§4) (i) Antibacterial activity in standard conditions. The test conjugates and reference compounds were evaluated for their activity against three reference strains of Gram-negative bacteria, namely, E. coli (ATCC 25922), Pseudomonas aeruginosa (ATCC 27853), and Klebsiella pneumoniae (ATCC 13883), and the four following reference strains of Gram-positive bacteria, Staphylococcus aureus (ATCC 29213), S. Epidermidis (ATCC 14990), E. faecalis (ATCC 29212), and Streptococcus pyogenes (ATCC 19615). […] MBC values were also determined as previously reported ([52]).

A further assay relates to K. pneumonia ATCC 138830. Nature of the assay: microbe, parasite or virus in culture. The conditions noted are these: K. pneumonia ATCC 138830; broth microdilution in cation-adjusted MHB2, CLSI; n = 3. The protocol:
as §3, §4
Background: Broth dilution looks for growth in wells or tubes with falling amounts of substance.

The next assay has as its system P. aeruginosa ATCC 27853. The assay is described as follows: microbe, parasite or virus in culture. The conditions noted are these: P. aeruginosa ATCC 27853; broth microdilution in cation-adjusted MHB2, CLSI; n = 3. The protocol: as §3, §4
The test system of another assay is E. coli ATCC 25922. The assay is described as follows: microbe, parasite or virus in culture. The settings on record: E. coli ATCC 25922; broth microdilution in cation-adjusted MHB2, CLSI; n = 3. The protocol: as §3, §4
A further assay deals with S. aureus ATCC 29213. The assay is described as follows: microbe, parasite or virus in culture. The settings on record: S. aureus ATCC 29213; broth microdilution in cation-adjusted MHB2, CLSI; n = 3. The protocol: as §3, §4
Assay [3] relates to K. pneumoniae (KP010) MDR clinical isolate. The settings on record: n = 3.
In assay [4] the test system is S. epidermidis ATCC 14990. The conditions noted are these: broth microdilution in cation-adjusted MHB2, CLSI, n = 3. The protocol: as §3, §4
Assay [5] deals with HFF-1 cells (human foreskin fibroblasts). It counts as cell-based. The conditions noted are these: 24 h. The protocol: (§5) The cytotoxicity of KTTK(C16Im)S and C16Im-KTTKS conjugates was assessed on human foreskin fibroblasts (HFF-1) and human immortalized keratinocytes (HaCaT). […] In turn, the parent IL [C16 M1Im][Br] and its […] equimolar mixture with PP4, KTTKS:[C16 M1Im][Br]
(§6) (iv) Toxicity to human cells. HaCat and HFF-1 were seeded at 4 × 10^4cell/mL in 96-well plate using in Dulbecco’s Modified Eagle Medium (DMEM; CLS) supplemented with 2% FBS (Biowest) and 1% of antibiotic/antimycotic solution (100 units/mL of penicillin, 10 mg/mL of streptomycin, and 0.25 mg/mL of amphotericin B, Sigma-Aldrich). The plate was incubated at 37°C in a 5% CO2 atmosphere, and the cells allowed to grow until confluence was reached. Then, solutions of the test compounds in DMEM supplemented with 2% FBS, in a concentration range between 6.3 and 100 μM, were added to the wells. After 24 h of incubation at 37°C in a 5% CO2 atmosphere, the cell viability was assessed through the resazurin reduction assay. Briefly, the medium was removed and then 20 μL of the alamarBlue Cell Viability Reagent (Resazurin sodium salt, Sigma-Aldrich) at 0.15 mg/mL in 100 μL of Hank’s Balanced Salt Solution (HBSS; Sigma-Aldrich) were added to each well; the plate was next incubated for 2 h at 37°C in a 5% CO2 atmosphere, after which fluorescence was read at 560/590 nm on a Flex Station 3 multi-mode microplate reader (Molecular Devices) ([53]). The IC50 values were thus determined using the GraphPad Prism 9.0 software, by applying the equation log(inhibitor) versus response with variable slope (four parameters).

In assay [6] the test system is P. aeruginosa (PA004) MDR clinical isolate. The settings on record: n = 3.
For another assay, the system named is S. aureus (ATCC 29213). The settings on record: for MBC: ATCC 29213, 24 h; for MIC: 10^5 CFU/mL, 18 h at 37°C, three independent experiments in triplicates. The protocol:
The antibacterial activity of C16Im-KTTKS and KTTK(C16Im)S was also assessed in simulated wound fluid (SWF) ([35]) against S. aureus (ATCC 29213), to check if it was preserved in this medium.
(ii) Antibacterial activity in simulated wound fluid. […] In parallel, SWF was prepared to a final composition of 50% fetal bovine serum (FBS; Sigma-Aldrich) and 50% peptone water (0.9% NaCl in 0.1% aqueous peptone; Sigma-Aldrich) ([35]). […] MIC values were determined in triplicates and are a result of three independent experiments.

For assay [7], the system named is S. aureus (SA007) MDR clinical isolate. The settings on record: for MIC: n = 3.
The test system of assay [8] is HaCaT cells (human immortalized keratinocytes). Nature of the assay: cells. It counts as cell-based. The conditions noted are these: 24 h. The protocol:
as §5, §6

Where [9] appears, read: in SWF (50% FBS, 50% peptone water).

Consider `CCCCCCCCCCCCCCCCn1cc[n+](Cc2cn(CCCC[C@H](NC(=O)[C@@H](NC(=O)[C@@H](NC(=O)[C@@H](N)CCCCN)[C@@H](C)O)[C@@H](C)O)C(=O)N[C@@H](CO)C(N)=O)nn2)c1` [KTTK(C16Im)S], for which the MIC is 5.4 μM and 5.0 μg/mL against C. albicans ATCC 90028 (listed as KTTK(C16m)S); 2.7 μM and 2.5 μg/mL in [1] (listed as KTTK(C16m)S); 5.4 μM and 5.0 μg/mL against C. glabrata ATCC 90030 (listed as KTTK(C16m)S); 32.5 μM and 29.9 μg/mL in the assay with E. faecalis ATCC 29212; 53.8 μM and 49.5 μg/mL against K. pneumonia ATCC 138830; 32.5 μM and 29.9 μg/mL in the assay with P. aeruginosa ATCC 27853. The MIC against E. coli ATCC 25922 was 7.0 μM and 6.45 μg/mL; in the assay on S. aureus ATCC 29213 it was 14.0 μM and 12.9 μg/mL; in assay [3] it was 21.7 μM and 20.0 μg/mL; in [4] it was 5.4 μM and 5.0 μg/mL; in [6], 21.7 μM and 20.0 μg/mL; in the assay on S. aureus (ATCC 29213) (in MHB), 32 µg/mL. Also, the MIC against S. aureus (ATCC 29213) (setting [9]) is 64 to 128 µg/mL; in assay [7], 21.7 μM and 20.0 μg/mL. Further, the “Collagen synthesis by HDF compared to the negative control” value in assay [2] was “produce more collagen”. Also, the figures for the IC50 in assay [5] and in assay [8] were 12.7 ± 1.06 µM and 23.1 ± 1.1 µM, respectively. Further, the MBC with S. aureus (ATCC 29213) is 32 [64 to 128] μg/mL.

With `CCCCCCCCCCCCCCCCn1cc[n+](Cc2cn(CC(=O)N[C@@H](CCCCN)C(=O)N[C@H](C(=O)N[C@H](C(=O)N[C@@H](CCCCN)C(=O)N[C@@H](CO)C(N)=O)[C@@H](C)O)[C@@H](C)O)nn2)c1` [Peptide C16Im-KTTKS] (X1-KTTKS-NH2), the MIC is 4.7 μM and 4.6 μg/mL in the assay on C. albicans ATCC 90028; 2.4 μM and 2.3 μg/mL in [1]; 4.7 μM and 4.6 μg/mL in the assay with C. glabrata ATCC 90030; 28.7 μM and 28.0 μg/mL in the assay on E. faecalis ATCC 29212; 27.4 μM and 26.8 μg/mL against K. pneumonia ATCC 138830; 28.7 μM and 28.0 μg/mL against P. aeruginosa ATCC 27853. Moreover, the MIC is 14.3 μM and 14.0 μg/mL against E. coli ATCC 25922; 14.3 μM and 14.0 μg/mL in the assay on S. aureus ATCC 29213; 37.9 μM and 37.0 μg/mL in [3]; 9.5 μM and 9.3 μg/mL in [4]; 18.5 µg/mL in assay [6]; 16 to 32 µg/mL with S. aureus (ATCC 29213) (in MHB). For the same compound, the MIC with S. aureus (ATCC 29213) (setting [9]) is 16 to 32 µg/mL; in assay [7] it was 18.5 µg/mL. Besides, the “Collagen synthesis by HDF compared to the negative control” value in assay [2] is on record as “produce more collagen”. Besides, the IC50 in assay [5] was 22.5 ± 1.08 µM; in assay [8], 36.6 ± 1.09 µM. In the assay with S. aureus (ATCC 29213), this compound displayed an MBC of 32 to 64 µg/mL. For the same compound, the “MIC relative to that of ciprofloxacin” value in assay [7] is ~10 fold.
